Among the data in PubChem BioAssay (NCI) are GI50 and TGI values, retold here.

Each structure is given as a SMILES string. Values joined by “and” are separate entries in the source; they are usually repeats but may differ in a detail not shown here. Identical values can stand only once.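 Each compound was tested at five concentrations against cells in 96-well plates for 48 hours. GI50 marks 50% less growth. TGI marks complete inhibition of growth.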

Among the test systems are HT29 colon; SK-MEL-5 melanoma; M14 melanoma; OVCAR-4 ovarian; A498 renal; 786-0 renal; UACC-257 melanoma; CAKI-1 renal; DU-145 prostate; HCC-2998 colon.
Test in all cases: inhibition of tumour cell growth, NCI panel, 48 h

Regarding `CCCCCCCCCCCCNC(=O)N[C@H](C(=O)N[C@H]1/C=C/CCNC(=O)/C=C/[C@H](C)NC1=O)C(C)C`, the GI50 is 21.6 nM with HT29 colon; 163 nM in the test on SK-MEL-5 melanoma; 221 nM in the test on M14 melanoma; 104 nM in the test with OVCAR-4 ovarian; 64.9 nM in the test on A498 renal; 276 nM in the test on 786-0 renal. The GI50 with UACC-257 melanoma is 269 nM; in the test on CAKI-1 renal it was 4950 nM; in the test with DU-145 prostate it was 108 nM; in the test with HCC-2998 colon, 23.9 nM. The TGI worked out at 331 nM in the test with HT29 colon; 390 nM in the test with SK-MEL-5 melanoma; 4600 nM in the test with M14 melanoma; 2120 nM with OVCAR-4 ovarian; 362 nM with A498 renal; 5390 nM in the test on 786-0 renal. Also, the TGI was 1850 nM in the test on UACC-257 melanoma, above 100000 nM in the test with CAKI-1 renal, 3780 nM with DU-145 prostate and 56.2 nM in the test on HCC-2998 colon.

For `CC1NC(C(=O)O)Cc2cc(O)c(O)cc21` (configuration not stated), the TGI in the test with HT29 colon, in the test on SK-MEL-5 melanoma, in the test on M14 melanoma, with OVCAR-4 ovarian, in the test on A498 renal and with 786-0 renal was above 100000 nM in each case. Further, the TGI in the test with UACC-257 melanoma, in the test with CAKI-1 renal, with DU-145 prostate and in the test with HCC-2998 colon was above 100000 nM in each case.

For the compound `O=c1c2cccc(F)c2sc2c(NCCCNCCO)nc3ccccc3c12`, the GI50 was 1510 nM in the test on HT29 colon; 1710 nM in the test with SK-MEL-5 melanoma; 1530 nM in the test on M14 melanoma; 1770 nM in the test on OVCAR-4 ovarian; 1500 nM in the test on A498 renal; 1440 nM with 786-0 renal. Also, the GI50 in the test on UACC-257 melanoma was 2030 nM; in the test with CAKI-1 renal, 1420 nM; in the test with DU-145 prostate, 1220 nM; with HCC-2998 colon, 1610 nM. The TGI came to 3250 nM in the test with HT29 colon; 3090 nM in the test with SK-MEL-5 melanoma; 2980 nM with M14 melanoma; 3640 nM with OVCAR-4 ovarian; 2880 nM in the test with A498 renal; 2840 nM with 786-0 renal. Also, the TGI was found to be 3990 nM with UACC-257 melanoma, 2730 nM in the test with CAKI-1 renal, 2480 nM with DU-145 prostate and 3190 nM in the test with HCC-2998 colon.

Regarding `CN(C)c1ccc(/C=C(\C#N)c2ccccc2)cc1`, the GI50 is 330 nM and 352 nM and 347 nM in the test with HT29 colon; 398 nM and 450 nM and 345 nM with SK-MEL-5 melanoma; 329 nM and 344 nM and 304 nM with M14 melanoma; 3180 nM and 2420 nM and 1750 nM in the test on OVCAR-4 ovarian; 633 nM and 281 nM and 316 nM in the test on A498 renal; 560 nM and 763 nM and 437 nM with 786-0 renal. The GI50 was 44700 nM and 57400 nM in the test on UACC-257 melanoma; 244 nM and 586 nM and 591 nM in the test on CAKI-1 renal; 617 nM and 1510 nM and 1480 nM in the test with DU-145 prostate; 1310 nM and 3240 nM and 1620 nM in the test on HCC-2998 colon. In addition, the TGI in the test on HT29 colon was 10900 nM and 71300 nM; in the test on SK-MEL-5 melanoma, 26300 nM and 18000 nM and 17800 nM; in the test on M14 melanoma it was above 100000 nM; in the test with OVCAR-4 ovarian, above 100000 nM; with 786-0 renal it was > 100000 nM and 58600 nM and 30200 nM; in the test with UACC-257 melanoma, above 100000 nM. The TGI is 22300 nM and > 100000 nM in the test with DU-145 prostate; 31700 nM and 57400 nM and > 100000 nM in the test with HCC-2998 colon.

In the case of `NS(=O)(=O)c1ccc(N=Nc2c(O)[nH]c3ccc(C(=O)NCCc4cnc[nH]4)cc23)cc1`, the GI50 in the test with HT29 colon, in the test with SK-MEL-5 melanoma, with M14 melanoma, in the test with OVCAR-4 ovarian, in the test with A498 renal and in the test on 786-0 renal was above 25000 nM throughout. Further, the GI50 in the test with UACC-257 melanoma, in the test on CAKI-1 renal, in the test on DU-145 prostate and with HCC-2998 colon was above 25000 nM in each case. In addition, the TGI with HT29 colon, with SK-MEL-5 melanoma, with M14 melanoma, in the test on OVCAR-4 ovarian, in the test with A498 renal and in the test with 786-0 renal was above 25000 nM each time. Moreover, the TGI with UACC-257 melanoma, with CAKI-1 renal, in the test with DU-145 prostate and in the test with HCC-2998 colon was above 25000 nM throughout.

Consider `CN1CCN(Cc2ccc(NC(=O)c3cncc(C#Cc4c(N)ncc5c(F)cccc45)c3)cc2C(F)(F)F)CC1`, for which the GI50 in the test with HT29 colon was 305 nM; in the test with SK-MEL-5 melanoma, 841 nM; in the test with M14 melanoma, 388 nM; in the test with OVCAR-4 ovarian it was 503 nM; with A498 renal, 763 nM; in the test on 786-0 renal, 873 nM. Moreover, the GI50 with UACC-257 melanoma is 854 nM; in the test with CAKI-1 renal it was 860 nM; in the test on DU-145 prostate, 832 nM; with HCC-2998 colon, 821 nM. Besides, the TGI in the test with HT29 colon was found to be 1080 nM; in the test with SK-MEL-5 melanoma, 1550 nM; with M14 melanoma it was 1170 nM; with OVCAR-4 ovarian, 1250 nM; with A498 renal it was 1550 nM; in the test with 786-0 renal, 1620 nM. Further, the TGI in the test on UACC-257 melanoma is 1760 nM; with CAKI-1 renal it was 1610 nM; in the test with DU-145 prostate it was 1520 nM; in the test on HCC-2998 colon, 1560 nM.

As for `NC(CP(=O)(O)O)C(=O)O` (configuration not stated), the TGI with HT29 colon, in the test on SK-MEL-5 melanoma, in the test on M14 melanoma, in the test with OVCAR-4 ovarian, in the test with A498 renal and with 786-0 renal was above 100000 nM in each case. Besides, the TGI in the test on UACC-257 melanoma, with CAKI-1 renal, in the test on DU-145 prostate and in the test with HCC-2998 colon was above 100000 nM in each case.

With `COc1ccc(C2CC(c3ccccc3)=NN2C(=O)c2cc(OC)c(OC)c(OC)c2)cc1O` (configuration not stated), the GI50 is 2960 nM in the test on HT29 colon; 338 nM with SK-MEL-5 melanoma; 299 nM in the test on M14 melanoma; 596 nM in the test with OVCAR-4 ovarian; 618 nM in the test with A498 renal; 301 nM in the test on 786-0 renal. In addition, the GI50 was 22100 nM in the test with UACC-257 melanoma, 925 nM with CAKI-1 renal, 479 nM in the test on DU-145 prostate and 724 nM with HCC-2998 colon. The TGI in the test on HT29 colon is 8310 nM; in the test with SK-MEL-5 melanoma it was 2170 nM; with M14 melanoma, 3990 nM; in the test with OVCAR-4 ovarian it was above 100000 nM; with A498 renal, 19400 nM; with 786-0 renal, 3860 nM. In addition, the TGI with UACC-257 melanoma is above 54300 nM; with CAKI-1 renal it was above 100000 nM; with HCC-2998 colon, 4080 nM.
